Assay results as given in patent US5866556A, “Pyridinylbisphosphonates for use as a therapeutical agent” (Leiras Oy, priority 1994, dated 1999).
Where two headings read alike, the source gives them in different places.

Experiments:
[1] = test system: spontaneous bone resorption; assay: Effect on spontaneous bone resorption assessed by urinary tetracycline excretion from prelabeled rats; type: in vivo, Sprague-Dawley rat; settings: for Inhibition of tetracycline excretion: n=5, mean (SE); for Inhibition of excretion of radiolabeled tetracycline / spontaneous bone resorption (in words): rats, s.c.
Procedure: Male Sprague-Dawley rats were used. From the first week of life, the rats were injected subcutaneously with a solution containing 10 μCi/ml of (7-^3 H(N))tetracycline dissolved in physiological saline. The injections were performed twice weekly for 6 weeks. Every animal received a total amount of 20 μCi radiolabeled tetracycline. All animals were given normal diet for growing animals and water ad libitum. One week after the last injection of radiolabeled tetracycline, the rats were weighed and feeding with diet for adult animals was started. At fifth day the rats were randomized into groups and housed in individual metabolic cages. 24-h urine collections were performed for ten days. From the second day [(2-pyridinylamino)methylidene]bisphosphonic acid tetraethylester, compound I, dissolved in physiological saline was injected subcutaneously at different dose levels daily for six days. Control animals received physiological saline. Urine volume was measured and the radioactivity in urine samples was determined by liquid scintillation counting. The data was calculated as the ratio of treated/control at each day for the determination of maximal inhibition of tetracycline excretion.
Excretion of unmetabolized tetracycline into urine reflects its removal from bone during resorptive processes and thus enables the continual monitoring of bone resorption.

[2] = test system: immobilization induced osteoporosis (femur bone area); assay: Effect on immobilization induced osteoporosis (sciatic nerve section) in rats; type: in vivo, Sprague-Dawley rat; settings: for Immobilized leg, femur total bone area: mean (SE), control 5.3 (0.6); for Femoral bone area in the immobilized leg / bone loss prevention (in words): sciatic nerve section
Procedure: Male Sprague-Dawley rats weighing 200±25 g were randomized by weight into groups and anesthetized with Hypnorm/Mebunat and Temgesic. A dorsolateral incision was made on the right or left hip through which the sciatic nerve was exposed, and a 0.5 cm section excised. The muscle and skin were sutured and the animal returned to its cage. The contralateral leg was left intact. The compound I dissolved in physiological saline was administered by subcutaneous injection daily at different dose levels from two days before the surgery until the day of 20 postneurectomy. Control animals received physiological saline. Animals double-labeled with fluorochrome at standardized time points were sacrificed at 21 days postneurectomy and their femora were removed. Femora were embedded in methylmetacrylate, sectioned, and stained. The metphyseal secondary spongiosa and the diaphyseal cortical bone of the femora were subjected to histomorphometric analysis. In control rats, femural total bone area decreased in the immobilized leg.

[3] = test system: PTH-stimulated bone resorption, mice calvaria; assay: Inhibition of PTH-stimulated resorption of calvarial bone in vitro; type: cell-based, mouse; settings: for Inhibition of bone resorption in vitro, mice calvaria (in words): except at very high, unphysiological concentrations, calcium release
Procedure: (§1) Newborn mice were labeled by a subcutaneous injection of ^45 Ca four days prior to sacrifice. Calvarial bone fragments were microdissected from the parietal bones, preincubated in culture medium with indomethacin, washed and then cultured for three days with and without the compound I. Bone resorption was stimulated by parathyroid hormone (PTH, 10 nM) and an inhibitory effect on this stimulated resorption was measured. […] For the determination of the binding of compound I to bone mineral, ^14 C-disodium clodronte tetrahydrate and hydroxyapatite crystals were incubated at room temperature in barbituric acid buffer at physiological pH in the absence and presence of the compound I in various concentrations. After two hours incubation, the mixture was centrifuged, and the percent of the total specifically bound radioactivity was measured from the supernatant. No binding of the compound I to hydroxyapatite was found at up to 500 μM concentration (Table 3).

[4] = Binding to bone mineral (hydroxyapatite crystals, 14C-clodronate); settings: for Binding to bone mineral: two hours; for Binding to hydroxyapatite (in words): up to 500 μM, physiological pH, in vitro
Procedure: as §1

[5] = Pharmacokinetics: urinary excretion of parent compound and bioavailability from urine; type: in vivo, rat; settings: for Urinary excretion 0-24 h as parent compound / dose excreted at 24 h: single dose 114 mg/kg; for Urinary excretion 0-24 h as parent compound: 1440 min; for dose excreted at 24 h: urine, read-out: Urinary excretion 0-24 h as parent compound
Procedure: (§2) Pharmacokinetics of the compound [(2-pyridinylamino)methylidene]bisphosphonic acid tetraethylester was studied in rats. Minor amounts of an intravenous dose was excreted as a parent compound during 24 hours into urine supporting extensive metabolism as well. About half of the oral dose of the said compound was absorbed in rats.
(§3) Bioavailability was determined from the total amount of compound excreted into urine during 24 hours or from the serum concentration data at different time points after oral administration and intravenous administration. The urine and serum samples were analyzed for the test compound I with high pressure liquid chromatographic methods. […] Bioavailability of compound I assessed by serum concentration data was 44%.

[6] = Pharmacokinetics: serum AUC and bioavailability from serum concentration data; type: in vivo; settings: rat; for AUC(0-inf): single dose 114 mg/kg, read-out: AUC0->.infin.
Procedure: as §2, §3

[7] = listed as [(2-pyridinylamino)methylidene]bisphosphonic acid tetraethylester

For `CCOP(=O)(OCC)C(Nc1ccccn1)P(=O)(OCC)OCC` [I, [(2-pyridinylamino)methylidene]bisphosphonic acid tetraethylester], the “Inhibition of tetracycline excretion” value ([1]; 1 mg/kg s.c. daily for six days) was 12.2 (6.4) %, the “Inhibition of tetracycline excretion” value ([1]; 10 mg/kg s.c. daily for six days) was 19.8 (5.9) % and the “Inhibition of tetracycline excretion” value ([1]; 100 mg/kg s.c. daily for six days) was 50.0 (6.1) %. The “Inhibition of tetracycline excretion” value ([1]; 200 mg/kg s.c. daily for six days) was 72.9 (2.6) %, the “Inhibition of excretion of radiolabeled tetracycline / spontaneous bone resorption (in words)” value [1, 7] was “decreased spontaneous bone resorption” and the “Inhibition of excretion of radiolabeled tetracycline / spontaneous bone resorption (in words)” value ([1]; listed as compound I) was “dose-dependently inhibited”. The “Immobilized leg, femur total bone area” value ([2]; 1 mg/kg s.c. daily, n=4) was 6.0 (1.3) %, the “Immobilized leg, femur total bone area” value ([2]; 75 mg/kg s.c. daily, n=5) was 24.5 (2.5) % and the “Immobilized leg, femur total bone area” value ([2]; 200 mg/kg s.c. daily, n=7) was 35.5 (1.7) %. The “Immobilized leg, femur total bone area” value ([2]; 37,5 mg/kg s.c. daily, n=5) was 17.3 (2.0) %, the “Mineral apposition rate of cortical bone” value ([2]; rats, s.c., data not presented) was “No deleterious effects” and the “Femoral bone area in the immobilized leg / bone loss prevention (in words)” value ([2]; rats, s.c., listed as [(2-pyridinylamino)methylidene]bisphosphonic acid tetraethylester) was “effective in preventing bone loss”. For the same molecule, the “Femoral bone area in the immobilized leg / bone loss prevention (in words)” value ([2]; rats, s.c., listed as compound I) was “increased dose-dependently femoral bone area in the immobilized leg”, the “Inhibition of PTH-stimulated resorption, 100 (PTH - x)/PTH” value (“Inhibition of PTH-stimulated resorption” for short) ([3]; 1 μmol/l, PTH 10 nM, three days culture) was “No inhibiton” and the “Inhibition of PTH-stimulated resorption” value ([3]; 10 μmol/l, PTH 10 nM, three days culture) was “No inhibition”. For the same molecule, the “Inhibition of PTH-stimulated resorption” value ([3]; 100 μmol/l, PTH 10 nM, three days culture) was “No inhibition”, the inhibition at 1000 µM ([3]; Mus musculus, 72 h, 1000 μmol/l, PTH 10 nM, three days culture, (SE), read-out: Inhibition of PTH-stimulated resorption, 100 (PTH - x)/PTH) was 12.9% and the “Inhibition of bone resorption in vitro, mice calvaria (in words)” value [3] was “no inhibition of resorption in vitro was shown except at very high, unphysiological concentrations”. For the same molecule, the “Inhibition of bone resorption in vitro, mice calvaria (in words)” value [3, 7] was “No effect”, the “Binding to bone mineral” value ([4]; 5 μmol/l) was “No binding” and the “Binding to bone mineral” value ([4]; 100 μmol/l) was “No binding”. The “Binding to bone mineral” value ([4]; 200 μmol/l) was “No binding”, the “Binding to bone mineral” value ([4]; 500 μmol/l) was “No binding” and the “Binding to hydroxyapatite (in words)” value [4, 7] was “did not show either any binding on hydroxyapatite crystals in vitro”. For the same molecule, the “Binding to hydroxyapatite (in words)” value ([4]; listed as compound I) was “No binding”, the “Urinary excretion 0-24 h as parent compound” value ([5]; i.v., 114 mg/kg) was 13.6 % of dose and the “Urinary excretion as a parent compound during 24 hours (in words)” value ([5]; intravenous dose, rats) was “Minor amounts”. The “Absorption of the oral dose (in words)” value ([5]; oral, rats) was “About half”, the “Urinary excretion 0-24 h as parent compound” value ([5]; p.o., 114 mg/kg) was 7.8 % of dose and the bioavailability at 24 h ([5]; rat, po, p.o. vs i.v., 114 mg/kg, urine 0-24 h, read-out: Bioavailability F from urinary excretion) was 58%. For the same molecule, the dose excreted at 24 h ([5]; rat, iv, 114 mg/kg, i.v.) was 14%, the dose excreted at 24 h ([5]; rat, po, 114 mg/kg, p.o.) was < 10% and the AUC(0-inf) ([6]; iv) was 139000 ng·h/mL. It also gave a bioavailability ([6]; po, p.o. vs i.v., 114 mg/kg, read-out: Bioavailability F from serum concentration data (AUC)) of 44% and an AUC(0-inf) ([6]; po) of 60700 ng·h/mL.
